Measurements published in ChEMBL document CHEMBL1201862, “PubChem BioAssay data set” (2004).
Active and inactive are the calls of the source.

Tests used:
[1] = biological target: Voltage-gated inwardly rectifying potassium channel KCNH2 (Homo sapiens, UniProt Q12809); settings: Potency;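 note: confirmatory quantitative high-throughput screen measuring inhibition of hERG channel activity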
[2] = Shn3 3'UTR reporter inhibitors, dose response, cell-based, Clone20 osteoblasts, firefly luciferase, cherry-picked (AID 624132); type: functional;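 note: firefly luciferase luminescence from reporter carrying the Shn3 3'UTR in osteoblasts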
Jurkat [3] = assay: antigen receptor-induced NF-kB inhibitors, dose response, Jurkat, luciferase reporter, luminescence, B- and T-cell (AID 489004); type: functional, cell-based; settings: Homo sapiens;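 note: NF-kB luciferase reporter Jurkat cells stimulated with PMA plus ionomycin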
[4] = HepG2 cell cytotoxicity, dose response, cytotoxicity control for Shn3 inhibitor project, CellTiter-Glo, cherry-picked (AID 624134); type: functional, cell-based
[5] = control 3'UTR Renilla luciferase suppression, dose response, counter-screen for Shn3 inhibitor project, cell-based, Clone20-Shn3RL, cherry-picked (AID 624133); type: functional
Beta-galactosidase = Beta-galactosidase (Escherichia coli, UniProt Q8VNN2); assay: PubChem AID 485352; type: functional
Sequence of Beta-galactosidase (Q8VNN2 whole entry): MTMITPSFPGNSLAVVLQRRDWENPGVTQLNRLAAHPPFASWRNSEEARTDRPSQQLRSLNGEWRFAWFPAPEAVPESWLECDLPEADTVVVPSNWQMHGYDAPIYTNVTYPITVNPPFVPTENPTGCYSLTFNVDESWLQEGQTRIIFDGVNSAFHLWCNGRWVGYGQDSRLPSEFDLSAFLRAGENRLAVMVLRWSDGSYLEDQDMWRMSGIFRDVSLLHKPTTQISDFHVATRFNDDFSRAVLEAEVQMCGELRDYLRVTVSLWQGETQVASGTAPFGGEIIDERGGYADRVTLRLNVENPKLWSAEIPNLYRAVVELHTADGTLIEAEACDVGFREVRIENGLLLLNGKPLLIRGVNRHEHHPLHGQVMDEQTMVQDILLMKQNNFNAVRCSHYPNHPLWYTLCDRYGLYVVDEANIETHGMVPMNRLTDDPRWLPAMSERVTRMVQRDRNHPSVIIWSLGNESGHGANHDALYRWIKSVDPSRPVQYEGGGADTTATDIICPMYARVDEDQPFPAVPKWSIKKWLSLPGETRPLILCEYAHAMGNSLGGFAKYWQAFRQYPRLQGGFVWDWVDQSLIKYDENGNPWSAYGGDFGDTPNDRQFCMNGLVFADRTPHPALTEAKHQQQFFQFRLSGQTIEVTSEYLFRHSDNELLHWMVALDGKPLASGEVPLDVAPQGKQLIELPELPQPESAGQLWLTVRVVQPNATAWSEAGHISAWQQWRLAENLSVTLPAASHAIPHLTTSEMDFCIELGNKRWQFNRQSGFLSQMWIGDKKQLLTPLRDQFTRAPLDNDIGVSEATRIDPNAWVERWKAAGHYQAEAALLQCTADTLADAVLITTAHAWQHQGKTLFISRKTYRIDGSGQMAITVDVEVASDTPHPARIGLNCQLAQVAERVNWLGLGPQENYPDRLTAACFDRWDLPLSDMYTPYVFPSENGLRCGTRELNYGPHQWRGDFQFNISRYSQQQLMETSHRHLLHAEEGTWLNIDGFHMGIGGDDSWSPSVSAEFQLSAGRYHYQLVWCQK

[6] = biological target: T1, Type-1 angiotensin II receptor (Homo sapiens, UniProt P30556); assay: AT1 receptor antagonists, dose response, selectivity assay for APJ receptor antagonist project, cell-based, uHTS hits (AID 463214); type: functional;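 note: antagonist potency against angiotensin II stimulated AT1 response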
T1 sequence (P30556 whole entry): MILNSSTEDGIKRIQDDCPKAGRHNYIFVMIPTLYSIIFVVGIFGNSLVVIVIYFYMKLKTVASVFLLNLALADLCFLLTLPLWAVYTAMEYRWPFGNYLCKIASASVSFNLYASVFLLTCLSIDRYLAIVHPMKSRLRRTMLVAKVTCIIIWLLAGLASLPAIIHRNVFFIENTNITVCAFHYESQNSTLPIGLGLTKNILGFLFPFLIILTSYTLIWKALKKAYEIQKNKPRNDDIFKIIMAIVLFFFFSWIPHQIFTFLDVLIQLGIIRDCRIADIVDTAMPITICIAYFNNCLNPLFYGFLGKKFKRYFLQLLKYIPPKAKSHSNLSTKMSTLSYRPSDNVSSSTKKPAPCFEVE

[7] = cytotoxicity in HEK-293T NF-kB-Luc cells, dose response, cytotoxicity control for B/T-cell NF-kB inhibitor project, cell-based, uHTS hits (AID 489019); type: functional;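 note: IC50 reflects cytotoxicity as loss of cell viability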
HEK293 [8] = assay: SAR Analysis of small molecule inhibitors of T-cell specific antigen receptor-induced NF-kB activation in a HEK-293T cell line using a luminescence assay - Set 2. [Related pubchem assays (depositor defined):AID435003, AID435012, AID489026]; type: functional, cell-based; settings: Homo sapiens
HEK293 [9] = assay: cytotoxicity in HEK293T NF-kB-Luc cells, SAR follow-up, cytotoxicity control for NF-kB activator project, cell-based, resazurin fluorescence (AID 493251); type: functional; settings: Homo sapiens
Jurkat [10] = assay: SAR Analysis of small molecule inhibitors of T-cell specific antigen receptor-induced NF-kB activation in a Jurkat cell line using a luminescence assay - Set 2. [Related pubchem assays (depositor defined):AID435003, AID435012, AID465]; type: functional, cell-based; settings: Homo sapiens
Hexokinase-1 = Hexokinase-1 (Homo sapiens, UniProt P19367); assay: SAR analysis of small molecule inhibitors of hexokinase domain containing I (HKDC1) in the hexokinase 1 selectivity assay. [Related pubchem assays (depositor defined):AID493160, AID493190]; type: functional
Hexokinase HKDC1 = biological target: T2, Hexokinase HKDC1 (Homo sapiens, UniProt Q2TB90); assay: SAR analysis of small molecule inhibitors of hexokinase domain containing I (HKDC1). [Related pubchem assays (depositor defined):AID493160, AID493190]; type: functional
T2 sequence (Q2TB90 whole entry): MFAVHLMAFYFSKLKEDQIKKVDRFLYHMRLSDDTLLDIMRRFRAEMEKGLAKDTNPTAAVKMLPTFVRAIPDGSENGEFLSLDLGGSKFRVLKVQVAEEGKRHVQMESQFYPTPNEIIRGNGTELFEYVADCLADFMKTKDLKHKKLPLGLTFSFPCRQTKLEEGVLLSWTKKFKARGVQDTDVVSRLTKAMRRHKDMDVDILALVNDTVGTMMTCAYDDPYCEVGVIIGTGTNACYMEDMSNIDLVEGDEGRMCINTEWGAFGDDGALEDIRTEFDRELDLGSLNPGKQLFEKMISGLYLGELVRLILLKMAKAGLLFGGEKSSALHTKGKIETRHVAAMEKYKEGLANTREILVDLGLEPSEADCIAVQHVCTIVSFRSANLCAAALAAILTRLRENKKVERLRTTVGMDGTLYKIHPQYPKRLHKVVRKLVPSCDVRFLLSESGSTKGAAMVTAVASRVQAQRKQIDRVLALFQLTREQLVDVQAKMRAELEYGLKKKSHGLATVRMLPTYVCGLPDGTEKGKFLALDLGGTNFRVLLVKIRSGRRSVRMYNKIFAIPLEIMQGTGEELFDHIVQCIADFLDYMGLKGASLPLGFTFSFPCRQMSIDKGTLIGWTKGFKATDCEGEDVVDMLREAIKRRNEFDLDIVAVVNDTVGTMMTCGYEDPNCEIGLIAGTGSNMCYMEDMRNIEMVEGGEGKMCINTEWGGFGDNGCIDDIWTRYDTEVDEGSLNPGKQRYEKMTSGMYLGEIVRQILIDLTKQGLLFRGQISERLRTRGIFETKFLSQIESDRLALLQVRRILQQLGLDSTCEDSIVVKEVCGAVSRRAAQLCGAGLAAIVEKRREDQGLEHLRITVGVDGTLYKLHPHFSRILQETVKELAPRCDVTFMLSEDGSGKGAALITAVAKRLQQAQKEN

[11] = Luminescence Cell-Based Dose Retest to Confirm Inhibitors of Cancer Stem Cells. [Related pubchem assays (depositor defined):AID2717, AID2721]; type: functional; settings: Homo sapiens
[12] = cytotoxicity in HMLE control line with eGFP shRNA, dose response, counter-screen for HMLE_sh_ECad selective toxicity project, cell-based, HMLE_sh_eGFP, luminescence (AID 463074); type: functional, Homo sapiens;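 note: HMLE human mammary epithelial cells expressing control shRNA against eGFP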
[13] = biological target: T3, Beta-adrenergic receptor kinase 1 (Homo sapiens, UniProt P25098); assay: aptamer displacement from bead-bound GRK2 – biochemical, cherry pick 1, bead flow cytometry, dose response (AID 504500)
T3 sequence (P25098 whole entry): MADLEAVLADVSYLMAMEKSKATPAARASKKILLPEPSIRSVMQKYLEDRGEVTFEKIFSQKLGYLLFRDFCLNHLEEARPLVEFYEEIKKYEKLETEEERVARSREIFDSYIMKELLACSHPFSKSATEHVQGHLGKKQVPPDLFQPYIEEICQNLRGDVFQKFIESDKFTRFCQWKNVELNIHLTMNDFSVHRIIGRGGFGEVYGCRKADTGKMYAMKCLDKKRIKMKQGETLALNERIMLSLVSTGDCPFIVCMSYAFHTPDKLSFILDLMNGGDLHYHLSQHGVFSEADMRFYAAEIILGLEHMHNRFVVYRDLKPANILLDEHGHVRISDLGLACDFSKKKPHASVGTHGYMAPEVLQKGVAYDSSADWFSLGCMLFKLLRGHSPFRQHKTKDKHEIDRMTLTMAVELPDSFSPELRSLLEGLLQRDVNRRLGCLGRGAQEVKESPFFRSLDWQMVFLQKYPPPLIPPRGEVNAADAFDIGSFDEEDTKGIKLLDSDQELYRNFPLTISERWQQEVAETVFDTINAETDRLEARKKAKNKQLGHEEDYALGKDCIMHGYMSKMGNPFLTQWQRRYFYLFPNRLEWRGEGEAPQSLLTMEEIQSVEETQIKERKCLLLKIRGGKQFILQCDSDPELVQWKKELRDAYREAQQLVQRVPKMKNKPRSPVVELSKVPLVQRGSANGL

[14] = biological target: T3, Beta-adrenergic receptor kinase 1; assay: GRK2 inhibitors displacing RNA aptamer, dose response, biochemical, flow cytometry beads, FAM-aptamer, powder set 1 (AID 588720)
[15] = biological target: DNA dC->dU-editing enzyme APOBEC-3G (Homo sapiens, UniProt Q9HC16); type: functional;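 note: Dose-response counterscreen measuring inhibition of APOBEC3G DNA deaminase activity, run while confirming APOBEC3A inhibitors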
Sequence of DNA dC->dU-editing enzyme APOBEC-3G (Q9HC16 whole entry): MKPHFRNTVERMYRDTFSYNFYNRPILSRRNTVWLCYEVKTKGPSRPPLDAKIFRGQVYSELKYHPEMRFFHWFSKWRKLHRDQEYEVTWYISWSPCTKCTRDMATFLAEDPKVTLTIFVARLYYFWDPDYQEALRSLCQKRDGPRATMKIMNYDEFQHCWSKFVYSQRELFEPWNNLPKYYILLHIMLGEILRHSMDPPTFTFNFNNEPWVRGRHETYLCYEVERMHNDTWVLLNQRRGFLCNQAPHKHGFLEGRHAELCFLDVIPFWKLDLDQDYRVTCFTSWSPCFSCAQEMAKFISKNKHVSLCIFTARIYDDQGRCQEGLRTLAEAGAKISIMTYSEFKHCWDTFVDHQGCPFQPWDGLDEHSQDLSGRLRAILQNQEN

[16] = biological target: DNA dC->dU-editing enzyme APOBEC-3A (Homo sapiens, UniProt P31941); assay: Dose Response confirmation of small molecule APOBEC3A DNA Deaminase Inhibitors via a fluorescence-based single-stranded DNA deaminase assay. [Related pubchem assays (depositor defined):AID493011, AID493024]; type: functional
Sequence of DNA dC->dU-editing enzyme APOBEC-3A (P31941 whole entry): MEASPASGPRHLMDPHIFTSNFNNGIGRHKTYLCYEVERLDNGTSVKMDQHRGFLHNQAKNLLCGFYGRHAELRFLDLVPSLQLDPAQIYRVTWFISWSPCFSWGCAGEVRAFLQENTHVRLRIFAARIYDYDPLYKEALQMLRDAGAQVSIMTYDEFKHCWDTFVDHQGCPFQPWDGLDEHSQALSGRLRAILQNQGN

Estrogen receptor beta = Estrogen receptor beta (Homo sapiens, UniProt Q92731);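 note: recombinant ER-beta bound to coactivator SRC1 peptide in presence of estradiol agonist; inhibitors block coactivator peptide binding and lower the FRET signal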
Sequence of Estrogen receptor beta (Q92731 whole entry): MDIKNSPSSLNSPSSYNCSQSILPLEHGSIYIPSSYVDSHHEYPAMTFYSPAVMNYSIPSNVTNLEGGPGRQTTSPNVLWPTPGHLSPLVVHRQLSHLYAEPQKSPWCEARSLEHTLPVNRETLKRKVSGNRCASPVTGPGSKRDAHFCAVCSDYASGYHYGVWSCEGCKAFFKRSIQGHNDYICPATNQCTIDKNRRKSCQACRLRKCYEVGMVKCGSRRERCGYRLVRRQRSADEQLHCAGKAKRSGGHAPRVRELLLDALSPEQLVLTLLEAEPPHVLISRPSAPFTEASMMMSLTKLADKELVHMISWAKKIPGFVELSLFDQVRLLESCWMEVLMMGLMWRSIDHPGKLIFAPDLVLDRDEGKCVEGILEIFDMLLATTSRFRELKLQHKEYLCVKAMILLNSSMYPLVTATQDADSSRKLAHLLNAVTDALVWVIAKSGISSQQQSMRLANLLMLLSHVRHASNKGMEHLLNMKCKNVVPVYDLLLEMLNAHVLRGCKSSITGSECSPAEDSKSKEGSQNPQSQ

[17] = biological target: T4, Beta-2 adrenergic receptor (Homo sapiens, UniProt P07550); assay: beta2AR agonists driving receptor internalization, dose response, cell-based, FAP fluorogen, flow cytometry, cherry pick 1 (AID 588763); type: functional
T4 sequence (P07550 whole entry): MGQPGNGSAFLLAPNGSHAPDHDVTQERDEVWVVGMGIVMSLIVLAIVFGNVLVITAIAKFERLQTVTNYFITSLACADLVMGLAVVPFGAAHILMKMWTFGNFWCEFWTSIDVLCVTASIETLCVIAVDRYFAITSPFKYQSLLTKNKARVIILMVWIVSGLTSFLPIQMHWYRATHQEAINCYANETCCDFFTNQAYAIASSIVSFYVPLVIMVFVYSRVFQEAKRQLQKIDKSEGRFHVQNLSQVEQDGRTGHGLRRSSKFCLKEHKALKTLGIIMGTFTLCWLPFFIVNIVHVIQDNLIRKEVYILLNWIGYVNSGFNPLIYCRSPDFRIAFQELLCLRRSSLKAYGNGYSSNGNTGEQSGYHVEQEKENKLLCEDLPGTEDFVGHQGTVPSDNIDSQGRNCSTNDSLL

[18] = biological target: T4, Beta-2 adrenergic receptor; assay: Dose response for HTS for Beta-2AR agonists via FAP method from Powderset3.; type: functional
[19] = biological target: T5, Short transient receptor potential channel 4 (Mus musculus, UniProt Q9QUQ5); assay: SAR Analysis for the identification of selective inhibits of the transient receptor potential cation channel C4 (TRPC4): Automated Electrophysiology_2. [Related pubchem assays (depositor defined):AID2256]; type: functional
T5 sequence (Q9QUQ5 whole entry): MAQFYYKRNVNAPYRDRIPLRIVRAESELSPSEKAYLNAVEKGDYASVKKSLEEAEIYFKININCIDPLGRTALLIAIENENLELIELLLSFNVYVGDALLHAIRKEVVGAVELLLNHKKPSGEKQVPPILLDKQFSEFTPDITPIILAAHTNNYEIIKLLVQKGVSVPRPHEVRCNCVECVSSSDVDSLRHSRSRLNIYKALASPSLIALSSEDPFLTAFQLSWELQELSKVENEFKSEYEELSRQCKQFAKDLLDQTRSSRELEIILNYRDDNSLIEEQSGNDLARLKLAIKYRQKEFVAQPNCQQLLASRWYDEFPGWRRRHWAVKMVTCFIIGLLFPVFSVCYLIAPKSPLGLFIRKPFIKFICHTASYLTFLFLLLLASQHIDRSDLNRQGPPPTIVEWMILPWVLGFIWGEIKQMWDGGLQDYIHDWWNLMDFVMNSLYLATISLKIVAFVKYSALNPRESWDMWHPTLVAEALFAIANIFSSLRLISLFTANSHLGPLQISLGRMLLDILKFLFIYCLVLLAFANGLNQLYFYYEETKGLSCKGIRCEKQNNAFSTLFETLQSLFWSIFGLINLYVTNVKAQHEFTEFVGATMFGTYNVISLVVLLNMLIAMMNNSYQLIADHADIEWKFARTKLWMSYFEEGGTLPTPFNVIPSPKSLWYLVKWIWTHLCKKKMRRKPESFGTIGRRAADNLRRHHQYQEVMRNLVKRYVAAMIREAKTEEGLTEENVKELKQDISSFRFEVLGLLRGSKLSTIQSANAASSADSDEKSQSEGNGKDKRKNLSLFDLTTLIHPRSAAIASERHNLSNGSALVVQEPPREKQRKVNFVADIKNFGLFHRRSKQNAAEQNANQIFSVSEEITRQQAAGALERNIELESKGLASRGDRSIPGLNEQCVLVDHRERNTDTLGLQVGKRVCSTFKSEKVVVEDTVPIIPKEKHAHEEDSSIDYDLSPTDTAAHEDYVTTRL

[20] = biological target: T5, Short transient receptor potential channel 4; assay: TRPC4 inhibitor concentration-response, dose response, cell-based, HEK293 TRPC4/mu-opioid, DAMGO stimulus, Fluo-4 (AID 492994); type: functional
[21] = biological target: Short transient receptor potential channel 6 (Mus musculus, UniProt Q61143); assay: TRPC6 inhibition potency of TRPC4 inhibitor analogs, dose response, selectivity assay for selective TRPC4 inhibitor project, HEK293 cells, membrane potential dye, IC50 (AID 492987); type: functional, cell-based
Sequence of Short transient receptor potential channel 6 (Q61143 whole entry): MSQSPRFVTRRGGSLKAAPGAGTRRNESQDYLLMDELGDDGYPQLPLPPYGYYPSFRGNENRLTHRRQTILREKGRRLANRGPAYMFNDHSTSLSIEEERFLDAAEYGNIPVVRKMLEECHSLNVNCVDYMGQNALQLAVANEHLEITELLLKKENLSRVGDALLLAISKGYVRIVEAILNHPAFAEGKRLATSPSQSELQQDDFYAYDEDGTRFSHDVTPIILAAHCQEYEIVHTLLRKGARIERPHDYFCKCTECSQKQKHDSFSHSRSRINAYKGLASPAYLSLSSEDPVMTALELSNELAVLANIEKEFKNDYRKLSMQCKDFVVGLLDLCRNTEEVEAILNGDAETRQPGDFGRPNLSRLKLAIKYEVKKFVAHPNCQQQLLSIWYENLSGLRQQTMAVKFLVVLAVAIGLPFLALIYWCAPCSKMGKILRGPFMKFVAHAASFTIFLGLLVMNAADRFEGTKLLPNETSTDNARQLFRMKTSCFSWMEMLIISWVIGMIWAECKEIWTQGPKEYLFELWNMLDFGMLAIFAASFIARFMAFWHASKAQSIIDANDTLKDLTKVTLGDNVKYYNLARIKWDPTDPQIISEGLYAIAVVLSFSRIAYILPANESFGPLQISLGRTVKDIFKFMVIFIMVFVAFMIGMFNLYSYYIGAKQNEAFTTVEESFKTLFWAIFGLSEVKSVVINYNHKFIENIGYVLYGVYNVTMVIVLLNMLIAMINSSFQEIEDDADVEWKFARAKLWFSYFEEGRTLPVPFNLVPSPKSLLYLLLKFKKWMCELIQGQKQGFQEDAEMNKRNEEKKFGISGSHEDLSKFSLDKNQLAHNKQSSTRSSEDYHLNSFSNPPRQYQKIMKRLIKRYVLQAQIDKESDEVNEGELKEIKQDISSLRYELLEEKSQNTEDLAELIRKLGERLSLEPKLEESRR

Sequence of Voltage-gated inwardly rectifying potassium channel KCNH2 (Q12809 whole entry): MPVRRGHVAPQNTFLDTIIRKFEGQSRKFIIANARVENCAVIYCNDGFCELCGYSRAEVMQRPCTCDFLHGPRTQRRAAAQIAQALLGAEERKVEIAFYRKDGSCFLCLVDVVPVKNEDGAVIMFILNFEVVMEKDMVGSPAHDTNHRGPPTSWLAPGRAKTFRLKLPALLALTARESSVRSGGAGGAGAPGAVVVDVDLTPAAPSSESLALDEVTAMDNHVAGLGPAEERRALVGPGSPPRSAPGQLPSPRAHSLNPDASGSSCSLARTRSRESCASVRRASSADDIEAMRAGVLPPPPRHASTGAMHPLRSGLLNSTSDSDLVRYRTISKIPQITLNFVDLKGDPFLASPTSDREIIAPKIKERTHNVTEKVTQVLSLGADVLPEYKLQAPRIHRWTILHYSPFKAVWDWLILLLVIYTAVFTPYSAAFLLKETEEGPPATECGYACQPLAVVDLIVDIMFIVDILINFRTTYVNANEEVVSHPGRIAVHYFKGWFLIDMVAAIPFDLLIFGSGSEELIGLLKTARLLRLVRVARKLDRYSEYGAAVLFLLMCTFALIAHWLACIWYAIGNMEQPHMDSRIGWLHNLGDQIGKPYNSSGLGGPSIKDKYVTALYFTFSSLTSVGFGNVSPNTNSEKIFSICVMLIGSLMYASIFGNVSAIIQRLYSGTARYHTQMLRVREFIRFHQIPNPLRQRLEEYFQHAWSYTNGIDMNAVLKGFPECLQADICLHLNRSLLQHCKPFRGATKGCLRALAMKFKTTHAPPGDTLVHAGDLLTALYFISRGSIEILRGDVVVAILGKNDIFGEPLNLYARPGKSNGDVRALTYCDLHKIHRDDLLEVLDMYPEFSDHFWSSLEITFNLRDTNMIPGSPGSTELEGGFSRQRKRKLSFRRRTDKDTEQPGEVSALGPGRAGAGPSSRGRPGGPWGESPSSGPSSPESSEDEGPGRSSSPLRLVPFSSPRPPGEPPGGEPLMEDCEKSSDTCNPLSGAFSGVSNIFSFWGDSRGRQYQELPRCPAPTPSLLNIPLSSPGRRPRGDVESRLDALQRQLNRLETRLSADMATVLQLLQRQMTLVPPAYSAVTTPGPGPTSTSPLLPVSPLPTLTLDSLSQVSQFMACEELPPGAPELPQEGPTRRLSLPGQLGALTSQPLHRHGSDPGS

COc1cc([C@@H]2c3cc4c(cc3[C@H](O)C3COC(=O)[C@@H]32)OCO4)cc(OC)c1OC (stereo not given in full)
AC50 [1]: 0.501 µM (inconclusive)

O=C1/C(=C/c2ccccc2)C[C@@]2(O)[C@H]3Cc4ccc(O)c5c4[C@@]2(CCN3CC2CC2)C1O5 (stereo not given in full)
AC50 [2]: 4.64 µM (active)
IC50 (Jurkat [3]): 4.22 µM (active)
AC50 [4]: 8.88 µM (active)
AC50 [5]: 7.78 µM (active)
EC50 (Beta-galactosidase): > 40 µM (inactive)
IC50 [6]: 14 µM (active)
IC50 [7]: > 80 µM (inactive)

COc1ccc(C(=O)Nc2ccc(NC(=O)c3cc4ccccc4o3)cc2)cc1Br
IC50 (HEK293 [8]): > 80 µM (inactive)
IC50 (HEK293 [9]): > 80 µM (inactive)
IC50 (Jurkat [10]): > 79 µM (inactive)

O=c1c2ccccc2nc(/C=C/c2ccccc2Cl)n1Cc1ccccc1
IC50 (Hexokinase-1): > 80 µM (inactive)
IC50 (Hexokinase HKDC1): > 80 µM (inactive)

Cc1ccc(Nc2nc(N)nc(CSC(=S)N3CCN(c4ccccc4)CC3)n2)cc1
AC50 [11]: 13.4 µM (active)
AC50 [12]: 31.4 µM (active)

Cc1cc(=O)[nH]c(SCC(=O)NCc2ccco2)n1
EC50 [13]: 22.1 µM (inactive)
EC50 [14]: 44.9 µM (active)
IC50 [15]: 43.4 µM (active)
IC50 [16]: 17.4 µM (active)
IC50 (Estrogen receptor beta): 6.27 µM (active)

C=CCn1c(CCNC(=O)c2cccs2)nnc1SCC(=O)c1ccc(Br)cc1
EC50 [17]: 0.214 µM (active)
EC50 [18]: 0.00548 µM (active)

Cc1cc(N2CCCC2)nc2c(C)cccc12
IC50 [19]: 9.96 µM (active)
IC50 [20]: 10.7 µM (active)
IC50 [21]: 9.8 µM (active)
